Source: patent publication US20260234115A1, “LIPID COMPOUNDS, COMPOSITIONS, AND USES THEREOF” (Liberate Bio, Inc., priority 2023, published 2026)
Marks after values point to notes of the source that are not given here.

System: mouse organs
Experiment: In vivo activity screening in mice: organ mean total flux (p/s) of luciferase activity after injection of F2 LNP pools (Table 6, FIG. 7A-7C)
Settings: luciferase mRNA
Summary of the method: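 Luciferase output per organ is reported as mean total flux (p/s) from IVIS regions of interest. Organs were collected from perfused C57BL/6J mice and imaged 10-15 min after s.c. D-luciferin, 4-6 h after i.v. dosing. Dosing was 0.25-3 mg/kg luciferase mRNA in F2 LNP pools.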

CCCCCCC(CCC(=O)OCC(COC(=O)CCCCOC(=O)C(CCCC)CCCCCC)(COC(=O)CCCCOC(=O)C(CCCC)CCCCCC)COC(=O)CCCCOC(=O)C(CCCC)CCCCCC)OC(=O)NCCN1CCCC1 (stereo not drawn) [Compound 56, [5-[2,2-bis[5-(2-butyloctanoyloxy)pentanoyloxymethyl]-3-[4-(2-pyrrolidin-1-ylethylcarbamoyloxy)decanoyloxy]propoxy]-5-oxo-pentyl]2-butyloctanoate]
Organ Mean Total Flux Femur (Mouse 3, dose 1.0 mg/kg): 6.4 p/s (×10^6)
Organ Mean Total Flux Heart (Mouse 3, dose 1.0 mg/kg): 17.7 p/s (×10^6)
Organ Mean Total Flux Kidney (Mouse 3, dose 1.0 mg/kg): 9.4 p/s (×10^6)
Organ Mean Total Flux Liver (Mouse 3, dose 1.0 mg/kg): 15800 p/s (×10^6)
Organ Mean Total Flux Lung (Mouse 3, dose 1.0 mg/kg): 66.6 p/s (×10^6)
Organ Mean Total Flux Muscle (Mouse 3, dose 1.0 mg/kg): 19.7 p/s (×10^6)
Organ Mean Total Flux Pancreas (Mouse 3, dose 1.0 mg/kg): 3.4 p/s (×10^6)
Organ Mean Total Flux Spleen (Mouse 3, dose 1.0 mg/kg): 13.0 p/s (×10^6)

CCCCC/C=C\CCOC(=O)CCCCC(=O)OCC(COC(=O)CCCCC(=O)OCC/C=C\CCCCC)(COC(=O)CCC(CCCCCC)OC(=O)NCCN1CCCC1)COC(=O)CCC(OCCCCCCCC)OCCCCCCCC (stereo not drawn) [Compound 15, O6-[2-(4,4-dioctoxybutanoyloxymethyl)-2-[[6-[(Z)-non-3-enoxy]-6-oxo-hexanoyl]oxymethyl]-3-[4-(2-pyrrolidin-1-ylethylcarbamoyloxy)decanoyloxy]propyl]O1-[(Z)-non-3-enyl]hexanedioate]
Organ Mean Total Flux Femur (Mouse 13, dose 0.5 mg/kg): 1.3 p/s (×10^6)
Organ Mean Total Flux Heart (Mouse 13, dose 0.5 mg/kg): 1.4 p/s (×10^6)
Organ Mean Total Flux Kidney (Mouse 13, dose 0.5 mg/kg): 0.4 p/s (×10^6)
Organ Mean Total Flux Liver (Mouse 13, dose 0.5 mg/kg): 992.3 p/s (×10^6)
Organ Mean Total Flux Lung (Mouse 13, dose 0.5 mg/kg): 3.7 p/s (×10^6)
Organ Mean Total Flux Muscle (Mouse 13, dose 0.5 mg/kg): 1.1 p/s (×10^6)
Organ Mean Total Flux Pancreas (Mouse 13, dose 0.5 mg/kg): 0.1 p/s (×10^6)
Organ Mean Total Flux Spleen (Mouse 13, dose 0.5 mg/kg): 1.6 p/s (×10^6)

CCCCC/C=C\CCOC(=O)CCCCC(=O)OCC(COC(=O)CCCCC(=O)OCC/C=C\CCCCC)(COC(=O)CCC(CCCCCC)OC(=O)NCCN1CCCC1)COC(=O)CC1CCC1 (stereo not drawn) [Compound 73, O6-[2-[(2-cyclobutylacetyl)oxymethyl]-2-[[6-[(Z)-non-3-enoxy]-6-oxo-hexanoyl]oxymethyl]-3-[4-(2-pyrrolidin-1-ylethylcarbamoyloxy)decanoyloxy]propyl]O1-[(Z)-non-3-enyl]hexanedioate]
Organ Mean Total Flux Femur (Mouse 12, dose 0.5 mg/kg): 7.3 p/s (×10^6)
Organ Mean Total Flux Heart (Mouse 12, dose 0.5 mg/kg): 0.5 p/s (×10^6)
Organ Mean Total Flux Kidney (Mouse 12, dose 0.5 mg/kg): 1.7 p/s (×10^6)
Organ Mean Total Flux Liver (Mouse 12, dose 0.5 mg/kg): 127.7 p/s (×10^6)
Organ Mean Total Flux Lung (Mouse 12, dose 0.5 mg/kg): 10.6 p/s (×10^6)
Organ Mean Total Flux Muscle (Mouse 12, dose 0.5 mg/kg): 6.8 p/s (×10^6)
Organ Mean Total Flux Pancreas (Mouse 12, dose 0.5 mg/kg): 15.7 p/s (×10^6)
Organ Mean Total Flux Spleen (Mouse 12, dose 0.5 mg/kg): 49.2 p/s (×10^6)

CCCCCCC(CCC(=O)OCC(COC(=O)CCCCCOC(=O)C(CCCC)CCCCCC)(COC(=O)CCCCCOC(=O)C(CCCC)CCCCCC)COC(=O)CC12CC3CC(CC(C3)C1)C2)OC(=O)NCCN1CCCC1 (stereo not drawn) [Compound 58, [6-[2-[[2-(1-adamantyl)acetyl]oxymethyl]-2-[6-(2-butyloctanoyloxy)hexanoyloxymethyl]-3-[4-(2-pyrolidin-1-ylethylcarbamoyloxy)decanoyloxy]propoxy]-6-oxo-hexyl]2-butyloctanoate]
Organ Mean Total Flux Femur (Mouse 3, dose 1.0 mg/kg): 11.5 p/s (×10^6)
Organ Mean Total Flux Heart (Mouse 3, dose 1.0 mg/kg): 2.8 p/s (×10^6)
Organ Mean Total Flux Kidney (Mouse 3, dose 1.0 mg/kg): 2.6 p/s (×10^6)
Organ Mean Total Flux Liver (Mouse 3, dose 1.0 mg/kg): 1493 p/s (×10^6)
Organ Mean Total Flux Lung (Mouse 3, dose 1.0 mg/kg): 41.0 p/s (×10^6)
Organ Mean Total Flux Muscle (Mouse 3, dose 1.0 mg/kg): 29.1 p/s (×10^6)
Organ Mean Total Flux Pancreas (Mouse 3, dose 1.0 mg/kg): 9.2 p/s (×10^6)
Organ Mean Total Flux Spleen (Mouse 3, dose 1.0 mg/kg): 10.5 p/s (×10^6)

CCCCC/C=C\CCOC(=O)CCCCC(=O)OCC(COC(=O)CCCCC(=O)OCC/C=C\CCCCC)(COC(=O)CCC(CCCCCC)OC(=O)NCCN1CCCC1)COC(=O)C12CCC(F)(CC1)CC2 (stereo not drawn) [Compound 93, O6-[2-[(4-fluorobicyclo[2.2.2]octane-1-carbonyl)oxymethyl]-2-[[6-[(Z)-non-3-enoxy]-6-oxo-hexanoyl]oxymethyl]-3-[4-(2-pyrrolidin-1-ylethylcarbamoyloxy)decanoyloxy]propyl]O1-[(Z)-non-3-enyl]hexanedioate]
Organ Mean Total Flux Femur (Mouse 12, dose 0.5 mg/kg): 27.8 p/s (×10^6)
Organ Mean Total Flux Heart (Mouse 12, dose 0.5 mg/kg): 1.3 p/s (×10^6)
Organ Mean Total Flux Kidney (Mouse 12, dose 0.5 mg/kg): 3.5 p/s (×10^6)
Organ Mean Total Flux Liver (Mouse 12, dose 0.5 mg/kg): 528.7 p/s (×10^6)
Organ Mean Total Flux Lung (Mouse 12, dose 0.5 mg/kg): 34.3 p/s (×10^6)
Organ Mean Total Flux Muscle (Mouse 12, dose 0.5 mg/kg): 11.0 p/s (×10^6)
Organ Mean Total Flux Pancreas (Mouse 12, dose 0.5 mg/kg): 25.8 p/s (×10^6)
Organ Mean Total Flux Spleen (Mouse 12, dose 0.5 mg/kg): 136.6 p/s (×10^6)

CCCCC/C=C\CCOC(=O)CCCCCC(=O)OCC(COC(=O)CCCCC)(COC(=O)CCCCCC(=O)OCC/C=C\CCCCC)COC(=O)CCC(CCCCCC)OC(=O)NCCN1CCCC1 (stereo not drawn) [Compound 60]
Organ Mean Total Flux Femur (Mouse 2, dose 1.0 mg/kg): 56.4 p/s (×10^6)
Organ Mean Total Flux Heart (Mouse 2, dose 1.0 mg/kg): 2.9 p/s (×10^6)
Organ Mean Total Flux Kidney (Mouse 2, dose 1.0 mg/kg): 5.5 p/s (×10^6)
Organ Mean Total Flux Liver (Mouse 2, dose 1.0 mg/kg): 1118 p/s (×10^6)
Organ Mean Total Flux Lung (Mouse 2, dose 1.0 mg/kg): 72.8 p/s (×10^6)
Organ Mean Total Flux Muscle (Mouse 2, dose 1.0 mg/kg): 28.7 p/s (×10^6)
Organ Mean Total Flux Pancreas (Mouse 2, dose 1.0 mg/kg): 86.2 p/s (×10^6)
Organ Mean Total Flux Spleen (Mouse 2, dose 1.0 mg/kg): 367.7 p/s (×10^6)
Organ Mean Total Flux Femur (Mouse 14, dose 0.5 mg/kg): 11.4 p/s (×10^6)
Organ Mean Total Flux Heart (Mouse 14, dose 0.5 mg/kg): 2.5 p/s (×10^6)
Organ Mean Total Flux Kidney (Mouse 14, dose 0.5 mg/kg): 4.1 p/s (×10^6)
Organ Mean Total Flux Liver (Mouse 14, dose 0.5 mg/kg): 448.0 p/s (×10^6)
Organ Mean Total Flux Lung (Mouse 14, dose 0.5 mg/kg): 20.5 p/s (×10^6)
Organ Mean Total Flux Muscle (Mouse 14, dose 0.5 mg/kg): 14.9 p/s (×10^6)
Organ Mean Total Flux Pancreas (Mouse 14, dose 0.5 mg/kg): 18.0 p/s (×10^6)
Organ Mean Total Flux Spleen (Mouse 14, dose 0.5 mg/kg): 42.7 p/s (×10^6)

CCCCCCC(CCC(=O)OCC(COC(=O)CCCCOC(=O)C(CCCC)CCCCCC)(COC(=O)CCCCOC(=O)C(CCCC)CCCCCC)COC(=O)CC12CC3CC(CC(C3)C1)C2)OC(=O)NCCN1CCCC1 (stereo not drawn) [Compound 59, [5-[2-[[2-(1-adamantyl)acetyl]oxymethyl]-2-[5-(2-butyloctanoyloxy)pentanoyloxymethyl]-3-[4-(2-pyrrolidin-1-ylethylcarbamoyloxy)decanoyloxy]propoxy]-5-oxo-pentyl]2-butyloctanoate]
Organ Mean Total Flux Femur (Mouse 13, dose 0.5 mg/kg): 2.6 p/s (×10^6)
Organ Mean Total Flux Heart (Mouse 13, dose 0.5 mg/kg): 2.6 p/s (×10^6)
Organ Mean Total Flux Kidney (Mouse 13, dose 0.5 mg/kg): 1.5 p/s (×10^6)
Organ Mean Total Flux Liver (Mouse 13, dose 0.5 mg/kg): 1967 p/s (×10^6)
Organ Mean Total Flux Lung (Mouse 13, dose 0.5 mg/kg): 9.9 p/s (×10^6)
Organ Mean Total Flux Muscle (Mouse 13, dose 0.5 mg/kg): 4.7 p/s (×10^6)
Organ Mean Total Flux Pancreas (Mouse 13, dose 0.5 mg/kg): 0.7 p/s (×10^6)
Organ Mean Total Flux Spleen (Mouse 13, dose 0.5 mg/kg): 2.8 p/s (×10^6)

CCCCC/C=C\CCOC(=O)CCCCCC(=O)OCC(COC(=O)CCCCCCOC(=O)C(CCCC)CCCCCC)(COC(=O)CCCCCCOC(=O)C(CCCC)CCCCCC)COC(=O)CCC(CCCCCC)OC(=O)NCCN1CCCC1 (stereo not drawn) [Compound 17, O7-[2,2-bis[7-(2-butyloctanoyloxy)heptanoyloxymethyl]-3-[4-(2-pyrrolidin-1-ylethylcarbamoyloxy)decanoyloxy]propyl]O1-[(Z)-non-3-enyl]heptanedioate]
Organ Mean Total Flux Femur (Mouse 2, dose 1.0 mg/kg): 8.0 p/s (×10^6)
Organ Mean Total Flux Heart (Mouse 2, dose 1.0 mg/kg): 13.0 p/s (×10^6)
Organ Mean Total Flux Kidney (Mouse 2, dose 1.0 mg/kg): 7.6 p/s (×10^6)
Organ Mean Total Flux Liver (Mouse 2, dose 1.0 mg/kg): 11856 p/s (×10^6)
Organ Mean Total Flux Lung (Mouse 2, dose 1.0 mg/kg): 59.3 p/s (×10^6)
Organ Mean Total Flux Muscle (Mouse 2, dose 1.0 mg/kg): 30.7 p/s (×10^6)
Organ Mean Total Flux Pancreas (Mouse 2, dose 1.0 mg/kg): 3.0 p/s (×10^6)
Organ Mean Total Flux Spleen (Mouse 2, dose 1.0 mg/kg): 5.5 p/s (×10^6)
